# Read-outs that look alike come from different tables or passages of the source.
# How the values were obtained:
# Format in all cases: cell-based
# [1] = biological target: proteins of HEK293T cells transiently overexpressing caspase-6 (Homo sapiens, UniProt P14625); conditions: exp_ref Probe; protein HSP90B1 (P14625); analysis C6
# [2] = biological target: proteins of HEK293T cells transiently overexpressing caspase-6 (Homo sapiens, UniProt Q9UJU6); conditions: Probe; protein DBNL Q9UJU6
# [3] = biological target: proteins of HEK293T cells transiently overexpressing caspase-6 (Homo sapiens, UniProt P14868); conditions: exp_ref Probe; protein DARS (P14868); analysis C6
# [4] = biological target: proteins of HEK293T cells transiently overexpressing caspase-6 (Homo sapiens, UniProt Q15084); conditions: exp_ref Probe; protein PDIA6 (Q15084); analysis C6
# Chain of proteins of HEK293T cells transiently overexpressing caspase-6 (Homo sapiens, UniProt Q15084) (Q15084 20-440): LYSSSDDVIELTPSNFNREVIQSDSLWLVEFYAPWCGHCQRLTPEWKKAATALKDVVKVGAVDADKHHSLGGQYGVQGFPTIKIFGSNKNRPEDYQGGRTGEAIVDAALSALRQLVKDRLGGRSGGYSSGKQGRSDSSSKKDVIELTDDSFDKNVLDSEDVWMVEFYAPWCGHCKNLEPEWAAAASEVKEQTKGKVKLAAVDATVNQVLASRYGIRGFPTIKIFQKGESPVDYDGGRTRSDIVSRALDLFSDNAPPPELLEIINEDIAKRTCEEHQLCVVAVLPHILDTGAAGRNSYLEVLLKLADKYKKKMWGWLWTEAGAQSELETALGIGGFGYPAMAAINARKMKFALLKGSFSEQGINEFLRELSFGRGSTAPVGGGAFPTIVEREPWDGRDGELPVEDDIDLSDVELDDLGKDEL
# [5] = biological target: proteins of HEK293T cells transiently overexpressing caspase-6 (Homo sapiens, UniProt Q99497); conditions: exp_ref Probe; protein PARK7 (Q99497); analysis C6
# Chain of proteins of HEK293T cells transiently overexpressing caspase-6 (Homo sapiens, UniProt Q99497) (Q99497 whole entry): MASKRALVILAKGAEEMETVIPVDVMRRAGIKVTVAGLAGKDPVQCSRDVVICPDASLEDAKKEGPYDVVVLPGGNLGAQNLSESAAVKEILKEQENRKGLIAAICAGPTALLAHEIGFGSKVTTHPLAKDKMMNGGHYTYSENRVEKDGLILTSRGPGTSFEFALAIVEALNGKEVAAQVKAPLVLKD
# [6] = biological target: proteins of HEK293T cells transiently overexpressing caspase-6 (Homo sapiens, UniProt Q15365); conditions: protein PCBP1 (Q15365); exp_ref Probe; analysis C6
# [7] = biological target: proteins of HEK293T cells transiently overexpressing caspase-6 (Homo sapiens, UniProt Q00765); conditions: protein REEP5 (Q00765)
# Chain of proteins of HEK293T cells transiently overexpressing caspase-6 (Homo sapiens, UniProt Q00765) (Q00765 whole entry): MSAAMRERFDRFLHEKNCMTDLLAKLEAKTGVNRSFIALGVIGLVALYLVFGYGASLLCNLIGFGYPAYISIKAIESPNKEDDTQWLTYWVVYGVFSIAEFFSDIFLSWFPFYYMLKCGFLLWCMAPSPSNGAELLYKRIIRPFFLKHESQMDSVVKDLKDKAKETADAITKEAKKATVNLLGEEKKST
# [8] = biological target: proteins of HEK293T cells transiently overexpressing caspase-6 (Homo sapiens, UniProt Q15393); conditions: exp_ref Probe; protein SF3B3 (Q15393); analysis C6
# [9] = biological target: proteins of HEK293T cells transiently overexpressing caspase-6 (Homo sapiens, UniProt Q99729); conditions: Probe; protein HNRNPAB Q99729
# Chain of proteins of HEK293T cells transiently overexpressing caspase-6 (Homo sapiens, UniProt Q99729) (Q99729 whole entry): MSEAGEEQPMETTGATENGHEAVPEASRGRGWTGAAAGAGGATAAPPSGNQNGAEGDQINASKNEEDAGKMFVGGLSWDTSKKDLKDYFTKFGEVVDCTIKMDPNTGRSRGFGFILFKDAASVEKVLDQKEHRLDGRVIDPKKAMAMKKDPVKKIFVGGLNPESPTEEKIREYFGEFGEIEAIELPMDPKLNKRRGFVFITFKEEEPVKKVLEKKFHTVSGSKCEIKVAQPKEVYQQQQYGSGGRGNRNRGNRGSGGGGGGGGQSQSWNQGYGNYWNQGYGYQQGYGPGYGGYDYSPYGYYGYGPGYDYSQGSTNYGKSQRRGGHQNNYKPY
# [10] = biological target: proteins of HEK293T cells transiently overexpressing caspase-6 (Homo sapiens, UniProt P14314); conditions: Probe; protein PRKCSH P14314
# Chain of proteins of HEK293T cells transiently overexpressing caspase-6 (Homo sapiens, UniProt P14314) (P14314 15-528): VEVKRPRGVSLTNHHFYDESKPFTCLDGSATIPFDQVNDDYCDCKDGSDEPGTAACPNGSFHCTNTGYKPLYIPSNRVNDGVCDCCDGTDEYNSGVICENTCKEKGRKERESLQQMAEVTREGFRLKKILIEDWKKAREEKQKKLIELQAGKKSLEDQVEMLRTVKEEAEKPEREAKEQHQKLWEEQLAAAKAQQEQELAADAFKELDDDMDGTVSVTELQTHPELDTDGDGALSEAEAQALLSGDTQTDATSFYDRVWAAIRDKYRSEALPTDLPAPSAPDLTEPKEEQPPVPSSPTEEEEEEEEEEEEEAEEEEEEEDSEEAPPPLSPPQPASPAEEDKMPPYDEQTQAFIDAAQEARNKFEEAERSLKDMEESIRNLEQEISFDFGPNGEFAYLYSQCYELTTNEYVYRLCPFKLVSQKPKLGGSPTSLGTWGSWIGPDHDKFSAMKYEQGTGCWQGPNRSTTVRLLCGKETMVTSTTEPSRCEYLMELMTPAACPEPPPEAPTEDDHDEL
# [11] = biological target: proteins of HEK293T cells transiently overexpressing caspase-6 (Homo sapiens, UniProt Q13085)
# [12] = biological target: proteins of HEK293T cells transiently overexpressing caspase-6 (Homo sapiens, UniProt P08758); conditions: exp_ref Probe; protein ANXA5 (P08758); analysis C6
# Chain of proteins of HEK293T cells transiently overexpressing caspase-6 (Homo sapiens, UniProt P08758) (P08758 whole entry): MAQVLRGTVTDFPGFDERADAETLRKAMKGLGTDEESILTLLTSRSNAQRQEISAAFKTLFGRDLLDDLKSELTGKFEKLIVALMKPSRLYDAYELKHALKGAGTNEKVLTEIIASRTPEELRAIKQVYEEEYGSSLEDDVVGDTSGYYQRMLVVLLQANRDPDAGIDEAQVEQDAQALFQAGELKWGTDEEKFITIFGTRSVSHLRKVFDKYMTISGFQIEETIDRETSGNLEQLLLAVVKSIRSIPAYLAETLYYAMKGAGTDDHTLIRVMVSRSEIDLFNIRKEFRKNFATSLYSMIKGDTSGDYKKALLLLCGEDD
# [13] = biological target: proteins of HEK293T cells transiently overexpressing caspase-6 (Homo sapiens, UniProt P25205); conditions: exp_ref Probe; protein MCM3 (P25205); analysis C6
# Chain of proteins of HEK293T cells transiently overexpressing caspase-6 (Homo sapiens, UniProt P25205) (P25205 whole entry): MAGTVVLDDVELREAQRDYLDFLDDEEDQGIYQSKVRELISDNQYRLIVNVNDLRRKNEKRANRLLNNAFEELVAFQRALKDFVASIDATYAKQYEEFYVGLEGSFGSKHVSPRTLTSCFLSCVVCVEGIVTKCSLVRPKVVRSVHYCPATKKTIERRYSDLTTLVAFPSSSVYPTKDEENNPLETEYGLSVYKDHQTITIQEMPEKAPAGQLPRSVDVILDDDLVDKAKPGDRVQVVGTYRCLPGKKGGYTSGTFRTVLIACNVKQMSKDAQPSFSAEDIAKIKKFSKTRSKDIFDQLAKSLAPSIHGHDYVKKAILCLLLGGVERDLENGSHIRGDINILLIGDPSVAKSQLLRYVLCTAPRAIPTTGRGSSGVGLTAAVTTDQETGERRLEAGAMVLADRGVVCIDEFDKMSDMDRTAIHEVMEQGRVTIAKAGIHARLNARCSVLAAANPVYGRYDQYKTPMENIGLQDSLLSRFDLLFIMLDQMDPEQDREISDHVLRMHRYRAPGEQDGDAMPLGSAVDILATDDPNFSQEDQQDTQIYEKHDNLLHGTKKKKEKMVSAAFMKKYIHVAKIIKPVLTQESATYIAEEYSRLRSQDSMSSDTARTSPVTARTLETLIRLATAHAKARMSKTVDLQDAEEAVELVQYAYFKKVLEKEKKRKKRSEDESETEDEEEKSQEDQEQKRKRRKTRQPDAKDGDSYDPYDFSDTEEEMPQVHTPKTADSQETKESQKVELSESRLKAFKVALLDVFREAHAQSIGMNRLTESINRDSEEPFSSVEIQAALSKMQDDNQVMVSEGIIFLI
# [14] = biological target: T1, proteins of HEK293T cells transiently overexpressing caspase-6 (Homo sapiens, UniProt Q96F45); conditions: protein ZNF503 (Q96F45), analysis C6
# T1 sequence (Q96F45 1-646): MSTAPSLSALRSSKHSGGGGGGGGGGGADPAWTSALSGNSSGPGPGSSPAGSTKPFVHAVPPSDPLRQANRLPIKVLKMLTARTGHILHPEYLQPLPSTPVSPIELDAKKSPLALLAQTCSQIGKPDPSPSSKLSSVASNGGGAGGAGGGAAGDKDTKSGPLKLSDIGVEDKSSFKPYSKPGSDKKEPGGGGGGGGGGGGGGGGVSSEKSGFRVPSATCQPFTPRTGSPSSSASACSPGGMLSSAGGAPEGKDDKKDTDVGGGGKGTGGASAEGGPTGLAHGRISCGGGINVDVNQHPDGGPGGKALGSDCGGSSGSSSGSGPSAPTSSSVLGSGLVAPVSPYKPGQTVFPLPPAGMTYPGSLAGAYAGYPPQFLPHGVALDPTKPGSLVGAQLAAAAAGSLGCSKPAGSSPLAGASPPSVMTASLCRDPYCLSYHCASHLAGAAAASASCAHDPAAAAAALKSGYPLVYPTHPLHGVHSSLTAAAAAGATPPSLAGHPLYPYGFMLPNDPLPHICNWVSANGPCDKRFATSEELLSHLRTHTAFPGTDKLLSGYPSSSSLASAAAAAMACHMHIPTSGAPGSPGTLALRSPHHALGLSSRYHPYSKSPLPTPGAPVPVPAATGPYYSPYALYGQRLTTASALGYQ
# [15] = biological target: proteins of HEK293T cells transiently overexpressing caspase-6 (Homo sapiens, UniProt Q92688); conditions: protein ANP32B (Q92688)
# Chain of proteins of HEK293T cells transiently overexpressing caspase-6 (Homo sapiens, UniProt Q92688) (Q92688 whole entry): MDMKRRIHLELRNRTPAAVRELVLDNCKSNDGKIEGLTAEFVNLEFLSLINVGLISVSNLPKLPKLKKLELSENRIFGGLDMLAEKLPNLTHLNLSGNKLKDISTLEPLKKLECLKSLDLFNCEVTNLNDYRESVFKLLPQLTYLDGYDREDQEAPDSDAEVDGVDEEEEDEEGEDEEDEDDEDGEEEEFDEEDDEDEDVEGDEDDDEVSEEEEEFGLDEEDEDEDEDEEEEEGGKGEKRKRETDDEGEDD
# [16] = biological target: proteins of HEK293T cells transiently overexpressing caspase-6 (Homo sapiens, UniProt Q92841); conditions: exp_ref Probe; protein DDX17 (Q92841); analysis C6
# Chain of proteins of HEK293T cells transiently overexpressing caspase-6 (Homo sapiens, UniProt Q92841) (Q92841 whole entry): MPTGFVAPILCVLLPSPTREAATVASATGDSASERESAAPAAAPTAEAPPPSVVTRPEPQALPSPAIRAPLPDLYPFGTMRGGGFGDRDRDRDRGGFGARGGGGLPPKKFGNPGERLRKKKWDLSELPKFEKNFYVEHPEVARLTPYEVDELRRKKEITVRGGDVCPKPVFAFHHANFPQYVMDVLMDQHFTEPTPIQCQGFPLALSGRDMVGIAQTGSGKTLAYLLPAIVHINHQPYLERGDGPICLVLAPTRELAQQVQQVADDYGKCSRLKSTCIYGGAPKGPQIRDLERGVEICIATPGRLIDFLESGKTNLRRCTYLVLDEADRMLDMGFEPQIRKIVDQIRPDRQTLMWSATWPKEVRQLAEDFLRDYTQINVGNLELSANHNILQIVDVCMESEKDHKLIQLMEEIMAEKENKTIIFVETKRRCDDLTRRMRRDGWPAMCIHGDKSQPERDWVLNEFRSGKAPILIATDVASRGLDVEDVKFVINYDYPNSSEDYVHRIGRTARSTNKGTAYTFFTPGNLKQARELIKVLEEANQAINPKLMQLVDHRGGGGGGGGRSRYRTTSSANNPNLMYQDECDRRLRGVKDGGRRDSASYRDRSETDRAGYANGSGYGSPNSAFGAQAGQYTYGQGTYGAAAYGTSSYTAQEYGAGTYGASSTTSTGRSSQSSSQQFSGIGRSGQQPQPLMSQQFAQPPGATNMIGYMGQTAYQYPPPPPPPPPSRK
# [17] = biological target: T2, proteins of HEK293T cells transiently overexpressing caspase-6 (Homo sapiens, UniProt P78417); conditions: protein GSTO1 (P78417)
# T2 sequence (P78417 1-241): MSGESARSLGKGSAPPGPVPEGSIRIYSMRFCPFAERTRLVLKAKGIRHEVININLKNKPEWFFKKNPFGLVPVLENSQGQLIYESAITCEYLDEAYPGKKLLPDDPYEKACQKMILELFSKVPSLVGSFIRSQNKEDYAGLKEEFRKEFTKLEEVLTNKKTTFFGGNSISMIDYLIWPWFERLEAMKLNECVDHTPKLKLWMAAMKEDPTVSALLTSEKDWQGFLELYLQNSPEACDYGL
# [18] = biological target: proteins of HEK293T cells transiently overexpressing caspase-6 (Homo sapiens, UniProt P49327); conditions: exp_ref Probe; protein FASN (P49327); analysis C6
# Chain of proteins of HEK293T cells transiently overexpressing caspase-6 (Homo sapiens, UniProt P14625) (P14625 22-803): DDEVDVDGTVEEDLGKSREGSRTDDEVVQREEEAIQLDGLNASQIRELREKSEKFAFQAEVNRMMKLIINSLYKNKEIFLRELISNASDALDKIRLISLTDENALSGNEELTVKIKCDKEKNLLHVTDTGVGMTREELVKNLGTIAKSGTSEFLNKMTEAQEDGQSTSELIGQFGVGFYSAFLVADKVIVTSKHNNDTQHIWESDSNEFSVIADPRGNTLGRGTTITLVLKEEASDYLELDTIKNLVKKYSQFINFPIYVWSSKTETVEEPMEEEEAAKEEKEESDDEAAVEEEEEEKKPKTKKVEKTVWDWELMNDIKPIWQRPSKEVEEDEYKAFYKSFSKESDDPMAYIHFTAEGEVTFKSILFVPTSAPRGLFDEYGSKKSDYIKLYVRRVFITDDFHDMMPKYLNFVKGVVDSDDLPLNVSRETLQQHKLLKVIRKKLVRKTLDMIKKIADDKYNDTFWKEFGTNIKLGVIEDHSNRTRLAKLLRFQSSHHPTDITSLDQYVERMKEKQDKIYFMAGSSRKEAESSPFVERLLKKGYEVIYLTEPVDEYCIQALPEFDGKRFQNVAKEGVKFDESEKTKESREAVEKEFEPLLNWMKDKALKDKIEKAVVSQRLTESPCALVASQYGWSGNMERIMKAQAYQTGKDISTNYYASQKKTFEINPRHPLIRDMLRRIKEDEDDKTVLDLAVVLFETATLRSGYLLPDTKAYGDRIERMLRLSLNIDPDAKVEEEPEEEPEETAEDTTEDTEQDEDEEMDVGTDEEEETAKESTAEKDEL
# Chain of proteins of HEK293T cells transiently overexpressing caspase-6 (Homo sapiens, UniProt Q9UJU6) (Q9UJU6 whole entry): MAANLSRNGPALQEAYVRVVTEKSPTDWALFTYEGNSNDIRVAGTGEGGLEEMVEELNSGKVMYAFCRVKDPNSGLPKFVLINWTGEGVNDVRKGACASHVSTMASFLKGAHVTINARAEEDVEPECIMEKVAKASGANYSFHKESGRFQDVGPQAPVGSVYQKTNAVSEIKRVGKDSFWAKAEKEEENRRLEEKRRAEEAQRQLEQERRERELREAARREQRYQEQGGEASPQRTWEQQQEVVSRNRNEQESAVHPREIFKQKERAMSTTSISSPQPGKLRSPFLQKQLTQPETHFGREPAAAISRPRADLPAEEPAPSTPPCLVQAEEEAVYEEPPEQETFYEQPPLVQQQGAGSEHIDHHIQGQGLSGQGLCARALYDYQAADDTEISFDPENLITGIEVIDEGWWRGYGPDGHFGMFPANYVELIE
compound,measurement,setting,value
C#CCOc1ccc([C@@H]2C[C@@H](C(=O)Nc3ccc(OC(F)(F)F)cc3)CN(S(=O)(=O)C=C)C2)cc1 (relative stereo) [13-t],enrich.exp.med,[1],0.4413
same,enrich.exp.med,[2],-0.5155
same,enrich.exp.med,[3],0.4884
same,enrich.exp.med,[4],0.9602
same,enrich.exp.med,[5],0.478
same,enrich.exp.med,[6],1.571
same,enrich.exp.med.lin,[7],12.9915
same,enrich.exp.med.log2,[7],3.6995
same,enrich.exp.med.lin,"[7]; Expt Probe, analysis C6",12.9915
same,enrich.exp.med.log2,"[7]; Expt Probe, analysis C6",3.6995
same,enrich.exp.med,"[7]; exp_ref Probe, analysis C6",3.6995
same,enrich.exp.med,[8],-0.1408
same,enrich.exp.med,[9],-0.4603
same,enrich.exp.med,[10],-0.8366
same,enrich.exp.med,"[11]; Probe, protein ACACA Q13085",-2.123
same,enrich.exp.med.lin,[11]; protein ACACA (Q13085),0.2296
same,enrich.exp.med.log2,[11]; protein ACACA (Q13085),-2.123
same,enrich.exp.med,[12],0.2384
same,enrich.exp.med,[13],0.2109
same,enrich.exp.med.lin,[14]; Expt Probe,59.486
same,enrich.exp.med.log2,[14]; Expt Probe,5.894
same,enrich.exp.med,[14]; exp_ref Probe,5.894
same,enrich.exp.med.lin,[15],4.217
same,enrich.exp.med.log2,[15],2.0761
same,enrich.exp.med,"[15]; exp_ref Probe, analysis C6",2.0761
same,enrich.exp.med,[16],0.3365
same,enrich.exp.med,"[17]; exp_ref Probe, analysis C6",0.9115
same,enrich.exp.med.lin,[17],1.881
same,enrich.exp.med.log2,[17],0.9115
same,enrich.exp.med,[18],-0.2577
